Patent publication US5958770A, “Glycoalkaloids” (priority 1990, dated 1999)

Assays:
[1] = test system: tumour; conditions: cited from earlier work
[2] = test system: ovarian cancer cells; assay: Inhibition of tritiated thymidine uptake, ovarian cancer cells; conditions: read-out: LD50 (dose to inhibit 50% tritiated thymidine uptake); OvCa
Experimental: (§1) The inhibition of cell replication by steroid alkaloids is determined by the inhibition of the incorporation of ^3 H thymidine into DNA. Using this technique, it should be possible to monitor any preferential inhibition of uptake of ^3 H thymidine by cancer cells.
(§2) Cells were maintained as monolayers in RPM1-1640 tissue culture media (Grant Island Biological Co) buffered with N-2-hydroxy-ethylpiperazine-N-2-ethanesulphonic acid pH 7.5 and supplemented with 10% heat inactivated fetal calf serum (FCS): (i) a human ovarian cancer cell line (C180-135), (ii) HeLa cells, (iii) human fibroblasts, and (iv) as a cell suspension of lymphoblastoid cells (EBV transformed lymphocytes). Monolayers were trypsinized to form a cell suspension. […] Cell concentration was adjusted to 2×10^5 cells/ml, and 2×10^4 cells were added in replicates of 10 to the wells (1×10^5 /ml well) of HA microtitre plates (Millipore Corp., USA). The cells were preincubated at 37.5° C. for 7 hours prior to the addition of 50 μl of the cytotoxic drug followed by the addition of 50 μl 5 uCi/ml of ^3 H thymidine, in the same tissue culture media 21 hours later. Incubation was continued for a total of 24 hours, which includes the pre-incubation time.
(§3) Appropriate DMSO cytotoxicity studies were also conducted. Solasodine glycosides were supplied as a mixture (BEC), and as separate components, solamargine, solasonine, a mixture of di- and mono-glycosides and the aglycone solasodine. All cytotoxic drugs were further diluted with HIFCS/TCM before testing. 5×10^4 ovarian cancer cells (200 μl/chamber of a chamber of microscope slide (Lab Tek Miles Scientific) were used. Controls received 50 μl HIFCS/TCM and experimental chambers 50 μl of solasodine glycosides (BEC) 1.5-3.8 μM/L after 7 hrs preincubation, and incubated for a further 3 hrs. Similarly, the cells were treated with the aglycone solasodine 19.4-96.8 μM/L. The cells were fixed and examined by the Papanicolaou method.

[3] = Inhibition of tritiated thymidine uptake, Con A stimulated lymphocytes; conditions: human, con a stimulated lymphocytes
Experimental: (§4) This was cultured for 48 hours and pulsed with tritiated thymidine for a further 24 hours. In the inhibition studies, the cell concentration was 8×10^5 /ml.
(§5) All cells were harvested by vacuum filtration by washing in 250 μl of each of phosphate buffered saline, 5% trichloroacetic acid, 1.0M NaCl and 95% ethanol and subjected to β-scintillatian counting. Similarly, peripheral human blood lymphocytes were isolated and cultured 2×10^5 lymphocytes in CO2 1640TCM 10% HIFCS. Lymphocytes were stimulated with 20 μg/ml PHA, Con A or PWM, and cultured for 48 hrs followed by a 24 hr pulse. […] Cell concentrations were 8×10^4 /well total volume 250 μl. The dpm of the experimental replicates were expressed as a percentage of the mean value of the controls, and the mean value of the experimental replicates calculated.

[4] = test system: ovarian cancer cells, HeLa cells, lymphoblastoid cells, fibroblasts; assay: Cytotoxicity / inhibition of tritiated thymidine uptake, cell types taken together; conditions: normal versus cancer cells
Experimental: as §1, §2, §3

[5] = Inhibition of tritiated thymidine uptake, PHA stimulated lymphocytes; conditions: human, pha stimulated lymphocytes
Experimental: as §4, §5

[6] = Inhibition of tritiated thymidine uptake, unstimulated lymphocytes; conditions: human, unstimulated lymphocytes
Experimental: as §4, §5

[7] = Inhibition of tritiated thymidine uptake, PWM stimulated lymphocytes; conditions: human, pwm stimulated lymphocytes
Experimental: as §4, §5

[8] = test system: HeLa cells; assay: cells
Experimental: as §1, §2, §3

[9] = test system: human fibroblasts; assay: cells; conditions: FB; NSE = no significant effect
Experimental: as §1, §2, §3

[10] = test system: lymphoblastoid cells (EBV transformed lymphocytes); assay: cells
Experimental: as §1, §2, §3

[11] = test system: cancer; conditions: rats; cited from earlier work

For `C[C@H]1CC[C@]2(NC1)O[C@H]1C[C@H]3[C@@H]4CC=C5C[C@@H](O[C@@H]6O[C@H](CO)[C@@H](O[C@@H]7O[C@@H](C)[C@H](O)[C@@H](O)[C@H]7O)[C@H](O)[C@H]6O[C@@H]6O[C@@H](C)[C@H](O)[C@@H](O)[C@H]6O)CC[C@]5(C)[C@H]4CC[C@]3(C)[C@H]1[C@@H]2C` [B-solamarine], the “tumour inhibition” value [1] is given as “tumour inhibitor”.

In the case of `O=C(O)CCCc1ccc(N(CCCl)CCCl)cc1` [chlorambucil, reference compound], the IC50 [2] is reported as 60 µM, the CC50 [3] is reported as 33 µM and the “cytotoxicity to normal cells relative to cancer cells” value [4] is reported as “equally or more cytotoxic to normal cells relative to cancer cells”. The CC50 [5] was 24.6 µM, the CC50 [6] was 33 µM and the CC50 [7] was 22 µM. For the same compound, the “TR50 (thymidine ratio relative to ovarian cancer cells)” value ([8]; HeLa / OvCa) was 0.79, the IC50 ([8]; read-out: LD50 (dose to inhibit 50% tritiated thymidine uptake), HeLa) was 47.5 µM and the “LD50 (dose to inhibit 50% tritiated thymidine uptake)” value [9] was “NSE”. The “TR50 (thymidine ratio relative to ovarian cancer cells)” value ([10]; LCL / OvCa) was 0.45 and the IC50 ([10]; read-out: LD50 (dose to inhibit 50% tritiated thymidine uptake), LCL) was 27 µM.

For “rhamnosyl [4→3] Solasodine [Solaplumbin]”, the “anticancer properties” value [11] is given as “anticancer properties in rats”.
